Experimental data taken from patent US20120034193A1, “TREATMENT OF NEUROTROPHIC FACTOR MEDIATED DISORDERS” (priority 2009, published 2012).

Experiments:
Experiment in all cases: Binding assay
Conditions in all cases: smilagenin 1 μM
Bradykinin B1 = Bradykinin B1 (Homo sapiens, UniProt P46663)
Procedure: (§1) The receptor binding was investigated using the following method: Sarsasapogenin was incubated with tissue or cell homogenate that expressed the receptor of interest and a known concentration a radiolabelled compound with affinity for the receptor of interest. After the incubation period the non-bound radiolabelled compound was removed and the amount of specific binding was quantified. The amount of specific binding in the presence and absence of sarsasapogenin were compared and the percent inhibition of the binding of the radiolabelled compound by sarsasapogenin was calculated. The source of the receptor, the incubation conditions, the radiolabelled compound used varied depending on each specific assay.
(§2) Using the same methods as described above, the binding of smilagenin (1 μM) to the receptors listed in Table 2 below, and the effect of smilagenin on the activity of the enzymes listed in Table 2 below, were investigated.

Neuromedin U MNU2 = Neuromedin U MNU2 (Homo sapiens, UniProt Q9GZQ4)
Procedure: as §1, §2

Prostanoid EP4 = Prostanoid EP4 (Homo sapiens, UniProt P35408)
Procedure: as §1, §2

[1] = target: T1, Vasoactive Intestinal Peptide, VIP1 (Homo sapiens, UniProt P32241)
T1 construct: host or cells: tissue or cell homogenate, not specified
Procedure: as §1, §2

Interleukin IL-1 = Interleukin IL-1 (Mus musculus, UniProt P13504)
Procedure: as §1, §2

[2] = target: Calcitonin Gene-Related Peptide CGRP1 (Homo sapiens, UniProt O60894+Q16602)
Procedure: as §1, §2

[3] = target: T2, G Protein-Coupled Receptor GPR8 (Homo sapiens, UniProt P48146)
T2 construct: host or cells: tissue or cell homogenate (not specified)
Procedure: as §1, §2

[4] = target: N-Formyl Peptide Receptor FPR1 (Homo sapiens, UniProt P21462)
Procedure: as §1, §2

[5] = target: Cholecystokinin CCK1 (CCKA) (Homo sapiens, UniProt P32238)
Procedure: as §1, §2

Oestrogen (ERα) = target: T3, Oestrogen (ERα) (Homo sapiens, UniProt P03372)
T3 construct: host or cells: tissue or cell homogenate (not specified)
Procedure: as §1, §2

[6] = target: 5-Hydroxytryptamine, 5-HT6 (Homo sapiens, UniProt P50406)
Procedure: as §1, §2

Dopamine D5 = Dopamine D5 (Homo sapiens, UniProt P21918)
Procedure: as §1, §2

Tachykinin NK3 = Tachykinin NK3 (Homo sapiens, UniProt P29371)
Procedure: as §1, §2

Vasopressin V1A = target: T4, Vasopressin V1A (Homo sapiens, UniProt P37288)
T4 construct: host or cells: tissue or cell homogenate, not specified
Procedure: as §1, §2

Sigma σ1 = Sigma σ1 (Homo sapiens, UniProt Q99720)
Procedure: as §1, §2

Progesterone PR-B = Progesterone PR-B (Homo sapiens, UniProt P06401)
Procedure: as §1, §2

[7] = target: 5-Hydroxytryptamine, 5-HT1A (Homo sapiens, UniProt P08908)
Procedure: as §1, §2

APJ = APJ (Homo sapiens, UniProt P35414)
Procedure: as §1, §2

Adrenomedullin AM2 = Adrenomedullin AM2 (Homo sapiens, UniProt O60896+Q16602)
Procedure: as §1, §2

Muscarinic M4 = target: T5, Muscarinic M4 (Homo sapiens, UniProt P08173)
T5 construct: host or cells: tissue or cell homogenate, not specified
Procedure: as §1, §2

GABAB1A = target: T6, GABAB1A (Homo sapiens, UniProt Q9UBS5)
T6 construct: host or cells: tissue or cell homogenate (not specified)
Procedure: as §1, §2

Anaphylatoxin C5a = Anaphylatoxin C5a (Homo sapiens, UniProt P21730)
Procedure: as §1, §2

[8] = target: T7, Epidermal Growth Factor (EGF) (Homo sapiens, UniProt P00533)
T7 construct: host or cells: tissue or cell homogenate (not specified)
Procedure: as §1, §2

Motilin = Motilin (Homo sapiens, UniProt O43193)
Procedure: as §1, §2

Dopamine D2S = Dopamine D2S (Homo sapiens, UniProt P14416)
Procedure: as §1, §2

Leukotriene, BLT (LTB4) = Leukotriene, BLT (LTB4) (Homo sapiens, UniProt Q15722)
Procedure: as §1, §2

Muscarinic M5 = target: T8, Muscarinic M5 (Homo sapiens, UniProt P08912)
T8 construct: host or cells: tissue or cell homogenate, not specified
Procedure: as §1, §2

Somatostatin sstl = Somatostatin sstl (Homo sapiens, UniProt P30872)
Procedure: as §1, §2

[9] = target: Androgen (testosterone) AR (Rattus norvegicus, UniProt P15207)
Procedure: as §1, §2

[10] = target: 5-Hydroxytryptamine, 5-HT2C (Homo sapiens, UniProt P28335)
Procedure: as §1, §2

GABAB1B = target: T9, GABAB1B (Homo sapiens, UniProt Q9UBS5)
T9 construct: host or cells: tissue or cell homogenate (not specified)
Procedure: as §1, §2

Tachykinin NK1 = Tachykinin NK1 (Homo sapiens, UniProt P25103)
Procedure: as §1, §2

[11] = target: T10, G Protein-Coupled Receptor GPR 103 (Homo sapiens, UniProt Q96P65)
T10 construct: host or cells: tissue or cell homogenate (not specified)
Procedure: as §1, §2

Insulin = Insulin (Rattus norvegicus, UniProt P15127)
Procedure: as §1, §2

Adrenergic α2C = Adrenergic α2C (Homo sapiens, UniProt P18825)
Procedure: as §1, §2

Urotensin II = target: T11, Urotensin II (Homo sapiens, UniProt Q9UKP6)
T11 construct: host or cells: tissue or cell homogenate, not specified
Procedure: as §1, §2

5-Hydroxytryptamine, 5-HT2C, sequence (P28335 33-458): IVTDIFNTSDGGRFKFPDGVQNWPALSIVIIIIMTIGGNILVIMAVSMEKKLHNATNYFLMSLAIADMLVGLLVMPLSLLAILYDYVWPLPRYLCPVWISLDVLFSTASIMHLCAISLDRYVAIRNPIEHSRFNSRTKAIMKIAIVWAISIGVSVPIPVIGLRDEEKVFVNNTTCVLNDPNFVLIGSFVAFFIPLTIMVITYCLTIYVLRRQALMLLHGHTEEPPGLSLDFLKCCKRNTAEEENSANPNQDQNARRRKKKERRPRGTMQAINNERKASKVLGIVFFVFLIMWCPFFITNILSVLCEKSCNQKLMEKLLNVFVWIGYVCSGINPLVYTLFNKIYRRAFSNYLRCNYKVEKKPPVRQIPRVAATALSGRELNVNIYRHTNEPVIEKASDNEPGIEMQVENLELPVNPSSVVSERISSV
5-Hydroxytryptamine, 5-HT6, sequence (P50406 whole entry): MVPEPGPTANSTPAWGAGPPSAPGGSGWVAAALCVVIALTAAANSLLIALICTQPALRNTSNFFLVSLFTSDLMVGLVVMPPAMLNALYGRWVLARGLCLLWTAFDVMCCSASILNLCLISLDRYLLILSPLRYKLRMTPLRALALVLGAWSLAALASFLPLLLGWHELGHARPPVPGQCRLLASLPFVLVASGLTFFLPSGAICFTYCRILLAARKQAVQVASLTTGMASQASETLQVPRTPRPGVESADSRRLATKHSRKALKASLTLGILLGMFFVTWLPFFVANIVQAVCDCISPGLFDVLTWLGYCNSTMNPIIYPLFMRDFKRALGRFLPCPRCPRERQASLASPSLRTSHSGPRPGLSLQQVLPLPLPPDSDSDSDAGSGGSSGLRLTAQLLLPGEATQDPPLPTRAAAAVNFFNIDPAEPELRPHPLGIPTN
T7 sequence (P00533 25-1210): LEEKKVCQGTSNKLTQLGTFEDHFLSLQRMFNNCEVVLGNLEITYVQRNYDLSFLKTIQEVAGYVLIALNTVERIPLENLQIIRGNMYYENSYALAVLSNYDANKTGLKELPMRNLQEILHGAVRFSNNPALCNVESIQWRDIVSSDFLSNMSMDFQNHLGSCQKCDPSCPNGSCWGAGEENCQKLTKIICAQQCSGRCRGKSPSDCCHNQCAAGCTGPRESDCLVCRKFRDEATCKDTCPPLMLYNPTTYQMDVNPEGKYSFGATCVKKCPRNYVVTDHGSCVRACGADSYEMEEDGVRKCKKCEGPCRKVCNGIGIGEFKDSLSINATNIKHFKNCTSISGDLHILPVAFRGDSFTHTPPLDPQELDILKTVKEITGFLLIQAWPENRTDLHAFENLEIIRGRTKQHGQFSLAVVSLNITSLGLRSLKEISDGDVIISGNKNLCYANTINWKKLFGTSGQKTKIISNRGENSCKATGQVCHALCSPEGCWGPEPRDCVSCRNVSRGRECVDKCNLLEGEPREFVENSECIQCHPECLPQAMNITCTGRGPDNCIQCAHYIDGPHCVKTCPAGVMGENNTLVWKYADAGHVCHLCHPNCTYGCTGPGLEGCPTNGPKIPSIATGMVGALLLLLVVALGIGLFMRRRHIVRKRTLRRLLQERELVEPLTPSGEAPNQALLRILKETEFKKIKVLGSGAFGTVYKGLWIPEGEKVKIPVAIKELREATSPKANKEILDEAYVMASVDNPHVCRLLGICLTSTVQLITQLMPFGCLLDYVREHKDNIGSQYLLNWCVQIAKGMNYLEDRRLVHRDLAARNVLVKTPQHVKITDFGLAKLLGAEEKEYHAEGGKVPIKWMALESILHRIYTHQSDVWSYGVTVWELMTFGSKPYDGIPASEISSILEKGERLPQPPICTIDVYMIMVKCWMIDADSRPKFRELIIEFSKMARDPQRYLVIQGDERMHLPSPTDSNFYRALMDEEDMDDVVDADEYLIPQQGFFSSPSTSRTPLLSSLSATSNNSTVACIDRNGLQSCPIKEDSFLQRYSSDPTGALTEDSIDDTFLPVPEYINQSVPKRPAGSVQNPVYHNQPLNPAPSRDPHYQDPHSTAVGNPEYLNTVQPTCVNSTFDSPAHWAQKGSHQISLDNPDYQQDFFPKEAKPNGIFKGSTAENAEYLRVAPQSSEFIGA
T6 sequence (Q9UBS5 15-961 limits assumed): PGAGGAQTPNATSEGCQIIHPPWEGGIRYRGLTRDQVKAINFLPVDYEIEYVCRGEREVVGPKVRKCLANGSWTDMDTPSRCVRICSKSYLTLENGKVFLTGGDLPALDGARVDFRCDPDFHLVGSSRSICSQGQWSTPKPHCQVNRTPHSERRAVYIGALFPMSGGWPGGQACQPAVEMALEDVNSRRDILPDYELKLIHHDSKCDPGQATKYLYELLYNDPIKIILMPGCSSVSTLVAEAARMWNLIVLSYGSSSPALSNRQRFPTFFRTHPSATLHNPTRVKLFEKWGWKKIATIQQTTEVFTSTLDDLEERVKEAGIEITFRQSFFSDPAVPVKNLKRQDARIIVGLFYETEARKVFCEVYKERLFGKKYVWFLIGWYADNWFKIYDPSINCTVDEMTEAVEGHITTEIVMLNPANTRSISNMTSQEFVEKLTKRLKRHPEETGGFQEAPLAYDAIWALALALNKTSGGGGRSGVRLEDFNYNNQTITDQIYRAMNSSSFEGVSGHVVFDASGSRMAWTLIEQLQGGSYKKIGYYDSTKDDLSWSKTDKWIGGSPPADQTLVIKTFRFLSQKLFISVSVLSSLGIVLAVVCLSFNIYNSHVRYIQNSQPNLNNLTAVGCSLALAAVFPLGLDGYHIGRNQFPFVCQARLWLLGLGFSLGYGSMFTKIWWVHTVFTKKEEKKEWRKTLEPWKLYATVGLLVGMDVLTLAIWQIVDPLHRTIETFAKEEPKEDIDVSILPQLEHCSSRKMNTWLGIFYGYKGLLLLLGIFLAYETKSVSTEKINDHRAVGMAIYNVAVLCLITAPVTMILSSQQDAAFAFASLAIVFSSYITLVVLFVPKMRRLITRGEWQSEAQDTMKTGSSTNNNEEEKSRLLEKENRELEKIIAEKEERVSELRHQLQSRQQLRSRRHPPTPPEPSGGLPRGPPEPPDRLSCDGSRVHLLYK
T6 sequence (O75899 42-941 partner): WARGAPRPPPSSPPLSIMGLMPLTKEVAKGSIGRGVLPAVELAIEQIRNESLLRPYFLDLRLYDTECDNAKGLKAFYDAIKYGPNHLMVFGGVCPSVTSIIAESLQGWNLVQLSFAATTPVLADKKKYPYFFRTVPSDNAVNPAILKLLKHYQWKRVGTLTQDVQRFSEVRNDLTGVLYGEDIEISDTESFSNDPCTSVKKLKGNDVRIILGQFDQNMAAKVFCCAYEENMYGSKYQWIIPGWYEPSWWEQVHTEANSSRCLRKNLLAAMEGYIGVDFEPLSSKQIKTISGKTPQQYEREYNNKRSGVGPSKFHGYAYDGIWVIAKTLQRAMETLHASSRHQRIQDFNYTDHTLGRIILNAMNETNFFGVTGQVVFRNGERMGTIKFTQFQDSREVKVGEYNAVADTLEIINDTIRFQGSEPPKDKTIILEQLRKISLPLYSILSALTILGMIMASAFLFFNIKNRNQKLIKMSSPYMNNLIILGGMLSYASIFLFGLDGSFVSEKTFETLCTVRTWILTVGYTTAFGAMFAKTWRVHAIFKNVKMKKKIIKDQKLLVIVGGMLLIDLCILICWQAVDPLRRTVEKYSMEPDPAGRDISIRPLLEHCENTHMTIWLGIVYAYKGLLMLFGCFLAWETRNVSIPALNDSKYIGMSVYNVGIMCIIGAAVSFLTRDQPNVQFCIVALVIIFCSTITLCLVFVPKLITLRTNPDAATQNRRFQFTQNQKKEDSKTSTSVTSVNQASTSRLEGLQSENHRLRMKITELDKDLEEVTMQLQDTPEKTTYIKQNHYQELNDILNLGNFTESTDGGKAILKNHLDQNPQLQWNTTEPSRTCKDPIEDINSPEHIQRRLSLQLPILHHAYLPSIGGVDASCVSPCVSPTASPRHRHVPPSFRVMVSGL
T10 sequence (Q96P65 whole entry): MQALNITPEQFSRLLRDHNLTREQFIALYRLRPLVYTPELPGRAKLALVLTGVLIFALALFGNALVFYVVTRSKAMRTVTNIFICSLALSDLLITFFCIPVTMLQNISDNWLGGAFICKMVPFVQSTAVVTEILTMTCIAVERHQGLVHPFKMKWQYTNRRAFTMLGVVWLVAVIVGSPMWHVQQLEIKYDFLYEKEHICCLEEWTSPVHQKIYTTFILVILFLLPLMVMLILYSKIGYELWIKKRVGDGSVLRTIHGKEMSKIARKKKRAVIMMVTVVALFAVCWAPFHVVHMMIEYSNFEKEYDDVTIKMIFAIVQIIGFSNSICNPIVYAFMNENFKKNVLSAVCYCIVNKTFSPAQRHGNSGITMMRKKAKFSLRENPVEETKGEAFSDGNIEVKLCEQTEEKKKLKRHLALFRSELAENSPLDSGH
Dopamine D2S, sequence (P14416 1-414 isoform P14416-2): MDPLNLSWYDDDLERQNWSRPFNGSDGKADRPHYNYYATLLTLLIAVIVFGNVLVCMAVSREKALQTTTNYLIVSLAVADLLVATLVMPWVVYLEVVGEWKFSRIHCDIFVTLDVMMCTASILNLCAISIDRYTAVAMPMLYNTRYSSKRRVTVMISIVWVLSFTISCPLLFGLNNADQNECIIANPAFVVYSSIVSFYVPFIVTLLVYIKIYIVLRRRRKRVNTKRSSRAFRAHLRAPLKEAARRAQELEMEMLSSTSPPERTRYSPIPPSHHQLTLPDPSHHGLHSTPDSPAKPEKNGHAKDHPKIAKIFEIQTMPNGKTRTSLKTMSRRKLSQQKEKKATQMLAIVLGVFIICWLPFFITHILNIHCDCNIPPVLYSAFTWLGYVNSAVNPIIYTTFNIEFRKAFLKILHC
Sigma σ1, sequence (Q99720 whole entry): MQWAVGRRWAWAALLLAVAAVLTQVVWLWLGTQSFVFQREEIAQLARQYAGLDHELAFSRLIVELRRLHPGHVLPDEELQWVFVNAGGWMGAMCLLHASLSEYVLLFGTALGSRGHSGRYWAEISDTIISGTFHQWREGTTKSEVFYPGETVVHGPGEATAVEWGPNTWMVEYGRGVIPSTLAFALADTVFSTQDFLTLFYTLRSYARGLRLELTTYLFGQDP

C[C@@H]1CC[C@@]2(OC1)O[C@H]1C[C@H]3[C@@H]4CC[C@@H]5C[C@@H](O)CC[C@]5(C)[C@H]4CC[C@]3(C)[C@H]1[C@@H]2C [Smilagenin, smilagenin]
Effect (%) (Bradykinin B1): NS (NS = No significant response. Significance was taken as ≧30% stimulation or inhibition) | Effect (%) (Neuromedin U MNU2): NS (NS = No significant response. Significance was taken as ≧30% stimulation or inhibition) | Effect (%) (Prostanoid EP4): NS (NS = No significant response. Significance was taken as ≧30% stimulation or inhibition) | Effect (%) [1]: NS (NS = No significant response. Significance was taken as ≧30% stimulation or inhibition) | Effect (%) (Interleukin IL-1): NS (NS = No significant response. Significance was taken as ≧30% stimulation or inhibition) | Effect (%) [2]: NS (NS = No significant response. Significance was taken as ≧30% stimulation or inhibition) | Effect (%) [3]: NS (NS = No significant response. Significance was taken as ≧30% stimulation or inhibition) | Effect (%) [4]: NS (NS = No significant response. Significance was taken as ≧30% stimulation or inhibition) | Effect (%) [5]: NS (NS = No significant response. Significance was taken as ≧30% stimulation or inhibition) | Effect (%) (Oestrogen (ERα)): NS (NS = No significant response. Significance was taken as ≧30% stimulation or inhibition) | Effect (%) [6]: NS (NS = No significant response. Significance was taken as ≧30% stimulation or inhibition) | Effect (%) (Dopamine D5): NS (NS = No significant response. Significance was taken as ≧30% stimulation or inhibition) | Effect (%) (Tachykinin NK3): NS (NS = No significant response. Significance was taken as ≧30% stimulation or inhibition) | Effect (%) (Vasopressin V1A): NS (NS = No significant response. Significance was taken as ≧30% stimulation or inhibition) | Effect (%) (Sigma σ1): NS (NS = No significant response. Significance was taken as ≧30% stimulation or inhibition) | Effect (%) (Progesterone PR-B): NS (NS = No significant response. Significance was taken as ≧30% stimulation or inhibition) | Effect (%) [7]: NS (NS = No significant response. Significance was taken as ≧30% stimulation or inhibition) | Effect (%) (APJ): NS (NS = No significant response. Significance was taken as ≧30% stimulation or inhibition) | Effect (%) (Adrenomedullin AM2): NS (NS = No significant response. Significance was taken as ≧30% stimulation or inhibition) | Effect (%) (Muscarinic M4): NS (NS = No significant response. Significance was taken as ≧30% stimulation or inhibition) | Effect (%) (GABAB1A): NS (NS = No significant response. Significance was taken as ≧30% stimulation or inhibition) | Effect (%) (Anaphylatoxin C5a): NS (NS = No significant response. Significance was taken as ≧30% stimulation or inhibition) | Effect (%) [8]: NS (NS = No significant response. Significance was taken as ≧30% stimulation or inhibition) | Effect (%) (Motilin): NS (NS = No significant response. Significance was taken as ≧30% stimulation or inhibition) | Effect (%) (Dopamine D2S): NS (NS = No significant response. Significance was taken as ≧30% stimulation or inhibition) | Effect (%) (Leukotriene, BLT (LTB4)): NS (NS = No significant response. Significance was taken as ≧30% stimulation or inhibition) | Effect (%) (Muscarinic M5): NS (NS = No significant response. Significance was taken as ≧30% stimulation or inhibition) | Effect (%) (Somatostatin sstl): NS (NS = No significant response. Significance was taken as ≧30% stimulation or inhibition) | Effect (%) [9]: NS (NS = No significant response. Significance was taken as ≧30% stimulation or inhibition) | Effect (%) [10]: NS (NS = No significant response. Significance was taken as ≧30% stimulation or inhibition) | Effect (%) (GABAB1B): NS (NS = No significant response. Significance was taken as ≧30% stimulation or inhibition) | Effect (%) (Tachykinin NK1): NS (NS = No significant response. Significance was taken as ≧30% stimulation or inhibition) | Effect (%) [11]: NS (NS = No significant response. Significance was taken as ≧30% stimulation or inhibition) | Effect (%) (Insulin): NS (NS = No significant response. Significance was taken as ≧30% stimulation or inhibition) | Effect (%) (Adrenergic α2C): NS (NS = No significant response. Significance was taken as ≧30% stimulation or inhibition) | Effect (%) (Urotensin II): NS (NS = No significant response. Significance was taken as ≧30% stimulation or inhibition)
